In patent US20190321417A1, “BACTERIAL PROBIOTIC TO DETOXIFY HERBICIDES AND INSECTICIDES” (PRESIDENT AND FELLOWS OF HARVARD COLLEGE, priority 2018, published 2019):

Assays:
[1] = tested on: Nasonia; experiment: Herbicide toxicity (LC50) in adult Nasonia from generationally-atrazine exposed and naïve populations; format: in vivo, Nasonia virtipennis; settings: 24 hr old adults
Description: (§1) FIGS. 3A-3C present data that show atrazine resistance. (FIG. 3A) The median lethal concentration of atrazine to kill half of the population (LC50) in ppm for each generation of the Naïve populations (open circles) and the Atrazine exposed populations (black circles). (FIG. 3B) The median lethal concentration of atrazine to kill half of the population (LC50) in ppm for each generation of the Naïve populations (open circles) and the Atrazine exposed populations (black circles) when grown Germfree, gnotobiotic. Without bacteria, both populations experience increased toxicity of atrazine, over 100 fold greater than normal generations' LC50. (FIG. 3C) LC50 survival of 24 hrs old adult Nasonia virtipennis were sprayed with a sterile PBS solution (squares), S. marcescens TVIT01 (8×10^6 cells/ml, circles), or P. protegens TVIT02 (3×10^8 cells/ml, triangles) and incubated for 6 hr before being fed 100 ppm of atrazine sugar solution (A) or only sugar solution (C), and their survival was calculated 48 hrs later. Three replicates of 50 individuals are for each treated group (Two-tailed t test, *P<0.05).
Toxicity experiments were conducted at a range of concentrations for both atrazine and Glyphosate to test the effect that the new microbiome has on increasing resistance. 50 adults (24 hr old) were put into vials from either the generationally-atrazine exposed populations or the naïve populations and exposed to atrazine or glyphosate at parts per million concentrations of 0 ppm, 10 ppm, 30 ppm, 100 ppm, 200 ppm, 400 ppm, 600 ppm, 800 ppm, 1000 ppm. Mortality was recorded after 0, 24, 48, 72, 96, 120, 168 hours (from atrazine exposure point). These were conducted in concurrent replicate experiments.

[2] = tested on: Nasonia; experiment: Atrazine toxicity in germfree, gnotobiotic Nasonia populations; format: in vivo, Nasonia virtipennis; settings: both exposed and naïve populations, 0-30 ppb atrazine, up to 96 hr
Description: as §1
To test the role of the microbiome as a detoxicant to herbicides, both populations were tested in germfree, gnotobiotic, conditions. Survival was measured when exposed atrazine concentrations of 0, 5 ppb, 10 ppb, 15 ppb, 25 ppb, 30 ppb for up to 96 hr. […]

[3] = generationally-atrazine exposed populations

## O=C(O)CNCP(=O)(O)O [Glyphosate, N-(phosphonomethyl)glycine]
[1]; [3]
  median lethal concentration to kill half of the population (LC50): 315 ppm
[1]; naïve populations
  median lethal concentration to kill half of the population (LC50): 148 ppm

## CCNc1nc(Cl)nc(NC(C)C)n1 [atrazine, Atrazine]
[2]
  increase in toxicity with bacteria removed, compared to normal: > 100 fold
[1]; [3]
  median lethal concentration to kill half of the population (LC50): 562 ppm
[1]; naïve populations
  median lethal concentration to kill half of the population (LC50): 62 ppm
